Laboratory results reported in the NIST ThermoML archive (doi:10.1016/j.jct.2018.12.006).

Assay: molar heat capacity at constant pressure
Settings: Crystal, Small (less than 1 g) adiabatic calorimetry

C[N+](C)(C)C[C@H](O)CC(=O)[O-] [(R)-3-hydroxy-4-(trimethylammonio)butanoate]
Settings | molar heat capacity at constant pressure [J/K/mol]
5 K, 101.33 kPa | 0.29
6.08 K, 100 kPa | 0.53
6.27 K, 100 kPa | 0.571
6.41 K, 100 kPa | 0.622
6.56 K, 100 kPa | 0.669
6.69 K, 100 kPa | 0.727
6.83 K, 100 kPa | 0.774
6.95 K, 100 kPa | 0.787
7.08 K, 100 kPa | 0.832
7.19 K, 100 kPa | 0.851
7.48 K, 100 kPa | 0.985
7.82 K, 100 kPa | 1.107
8.18 K, 100 kPa | 1.278
8.52 K, 100 kPa | 1.441
8.75 K, 100 kPa | 1.53
9.06 K, 100 kPa | 1.689
9.34 K, 100 kPa | 1.836
9.62 K, 100 kPa | 2.018
9.93 K, 100 kPa | 2.207
10 K, 101.33 kPa | 2.25
10.24 K, 100 kPa | 2.402
10.56 K, 100 kPa | 2.616
10.88 K, 100 kPa | 2.869
11.21 K, 100 kPa | 3.127
11.62 K, 100 kPa | 3.417
11.9 K, 100 kPa | 3.675
12.69 K, 100 kPa | 4.369
13.96 K, 100 kPa | 5.657
15 K, 101.33 kPa | 6.89
15.22 K, 100 kPa | 7.205
16.5 K, 100 kPa | 8.836
17.79 K, 100 kPa | 10.57
19.1 K, 100 kPa | 12.27
20 K, 101.33 kPa | 13.41
20.43 K, 100 kPa | 13.99
22.35 K, 100 kPa | 16.18
24.86 K, 100 kPa | 19.02
25 K, 101.33 kPa | 19.34
27.27 K, 100 kPa | 21.98
29.7 K, 100 kPa | 24.73
30 K, 101.33 kPa | 25.01
32.15 K, 100 kPa | 27.39
34.61 K, 100 kPa | 30.12
35 K, 101.33 kPa | 30.61
37.06 K, 100 kPa | 32.92
39.52 K, 100 kPa | 35.77
40 K, 101.33 kPa | 36.27
41.98 K, 100 kPa | 38.6
44.45 K, 100 kPa | 41.3
45 K, 101.33 kPa | 41.94
46.92 K, 100 kPa | 43.9
49.4 K, 100 kPa | 46.7
50 K, 101.33 kPa | 47.51
51.56 K, 100 kPa | 49.36
53.43 K, 100 kPa | 51.37
55.31 K, 100 kPa | 53.34
57.23 K, 100 kPa | 55.32
59.08 K, 100 kPa | 57.13
60 K, 101.33 kPa | 57.97
60.96 K, 100 kPa | 58.68
62.84 K, 100 kPa | 60.64
64.71 K, 100 kPa | 62.32
66.57 K, 100 kPa | 64.28
68.43 K, 100 kPa | 65.98
70 K, 101.33 kPa | 67.35
70.29 K, 100 kPa | 67.73
72.16 K, 100 kPa | 69.2
74.04 K, 100 kPa | 70.9
75.9 K, 100 kPa | 72.29
77.76 K, 100 kPa | 74.17
79.61 K, 100 kPa | 75.69
80 K, 101.33 kPa | 75.9
81.77 K, 100 kPa | 77.54
84.24 K, 100 kPa | 79.31
84.82 K, 100 kPa | 79.43
86.69 K, 100 kPa | 81.13
88.65 K, 100 kPa | 82.96
90 K, 101.33 kPa | 83.98
92.22 K, 100 kPa | 85.77
95.79 K, 100 kPa | 88.51
99.36 K, 100 kPa | 91.34
100 K, 101.33 kPa | 91.81
102.92 K, 100 kPa | 94.28
106.48 K, 100 kPa | 96.97
110 K, 101.33 kPa | 99.54
110.02 K, 100 kPa | 99.66
113.57 K, 100 kPa | 102.4
117.1 K, 100 kPa | 105
120 K, 101.33 kPa | 107.5
120.63 K, 100 kPa | 107.7
124.16 K, 100 kPa | 110.4
127.68 K, 100 kPa | 113
130 K, 101.33 kPa | 114.7
131.19 K, 100 kPa | 115.4
134.7 K, 100 kPa | 117.9
138.2 K, 100 kPa | 120.5
140 K, 101.33 kPa | 121.6
141.66 K, 100 kPa | 122.9
145.14 K, 100 kPa | 125.4
148.61 K, 100 kPa | 127.8
150 K, 101.33 kPa | 128.6
152.07 K, 100 kPa | 130.3
155.53 K, 100 kPa | 132.7
158.97 K, 100 kPa | 135
160 K, 101.33 kPa | 135.8
162.41 K, 100 kPa | 137.4
165.85 K, 100 kPa | 139.7
169.27 K, 100 kPa | 142.1
170 K, 101.33 kPa | 142.8
172.68 K, 100 kPa | 144.4
176.08 K, 100 kPa | 146.7
179.48 K, 100 kPa | 149
180 K, 101.33 kPa | 149.2
182.87 K, 100 kPa | 151.1
186.24 K, 100 kPa | 153.1
189.61 K, 100 kPa | 154.7
190 K, 101.33 kPa | 154.7
192.97 K, 100 kPa | 156.2
196.22 K, 100 kPa | 157.8
199.57 K, 100 kPa | 159.7
200 K, 101.33 kPa | 160.1
202.89 K, 100 kPa | 161.9
203.31 K, 100 kPa | 162.1
206.21 K, 100 kPa | 163.8
206.83 K, 100 kPa | 163.9
209.52 K, 100 kPa | 165.7
210 K, 101.33 kPa | 166
210.24 K, 100 kPa | 166.4
212.83 K, 100 kPa | 167.6
213.66 K, 100 kPa | 168.2
216.13 K, 100 kPa | 169.6
219.43 K, 100 kPa | 171.7
220 K, 101.33 kPa | 172.2
222.71 K, 100 kPa | 173.9
225.97 K, 100 kPa | 176
229.25 K, 100 kPa | 178.3
230 K, 101.33 kPa | 178.6
232.54 K, 100 kPa | 180.4
235.81 K, 100 kPa | 182.5
239.07 K, 100 kPa | 184.6
240 K, 101.33 kPa | 185.1
242.32 K, 100 kPa | 186.7
245.56 K, 100 kPa | 188.8
248.62 K, 100 kPa | 190.6
250 K, 101.33 kPa | 191.6
251.85 K, 100 kPa | 192.6
255.07 K, 100 kPa | 194.8
257.5 K, 100 kPa | 196.2
260 K, 101.33 kPa | 198.2
260.89 K, 100 kPa | 199.2
264.26 K, 100 kPa | 200.6
267.64 K, 100 kPa | 203.5
270 K, 101.33 kPa | 205
271 K, 100 kPa | 205.7
273.15 K, 101.33 kPa | 207.2
274.35 K, 100 kPa | 208.2
277.7 K, 100 kPa | 210.3
280 K, 101.33 kPa | 211.9
281.03 K, 100 kPa | 212.6
284.35 K, 100 kPa | 214.7
287.63 K, 100 kPa | 217.8
290 K, 101.33 kPa | 218.9
290.92 K, 100 kPa | 219.8
294.21 K, 100 kPa | 221
297.46 K, 100 kPa | 224.2
298.15 K, 101.33 kPa | 224.7
300 K, 101.33 kPa | 226
300.21 K, 100 kPa | 225.9
302.94 K, 100 kPa | 227.7
306.14 K, 100 kPa | 230.3
309.33 K, 100 kPa | 232.6
310 K, 101.33 kPa | 233.1
312.5 K, 100 kPa | 234.8
315.65 K, 100 kPa | 237.1
318.79 K, 100 kPa | 239.5
320 K, 101.33 kPa | 240.1
321.91 K, 100 kPa | 241.3
325.01 K, 100 kPa | 243.5
328.09 K, 100 kPa | 245.8
330 K, 101.33 kPa | 247.2
331.16 K, 100 kPa | 248.1
334.21 K, 100 kPa | 250.7
337.21 K, 100 kPa | 251.9
340 K, 101.33 kPa | 254.2
340.22 K, 100 kPa | 254.1
343.21 K, 100 kPa | 256.3
346.17 K, 100 kPa | 258.6
350 K, 101.33 kPa | 261
